Entries after “also recorded” stand apart in the source; their conditions may differ.
How the values were obtained:
[1] = test system: NGLY1 deficient fibroblasts; experiment: Lipofuscin levels; type: cell-based, human; details: FIG. 8B
[2] = test system: NGLY1 deficient fibroblasts; experiment: ATP levels, CellTiter-Glo ATP Assay; type: cell-based, human; details: PT1 48 hrs vs DMSO
Description: Methods: SURF1, POLG, and NGLY1 patient cells were supplemented with PT1 or DMSO (untreated control) for 48 hrs (n=3) and ATP levels measured by the CellTiter-Glo ATP Assay or for 72 hrs (n=3) and ROS levels were measured by the CellROX Deep Red Flow Cytometry Assay. Results were normalized to total protein concentration. Data are represented as the mean±standard error of the mean. Statistical significance was measured to p<0.05.

[3] = test system: COX10 deficient fibroblasts; experiment: Cell viability (Calcein AM) in siRNA knockdown study; type: cell-based, human; details: PT1 alone and siCNT+PT1 vs DMSO and siAMPK+PT1; FIG. 4B
Description: (§1) Methods: Cell growth was measured by a fluorometric method using Calcein AM (Anaspec). Mitochondrial stressor media was removed, wells washed with PBS and then incubated with 500 ul/well of 800 nM Calcein AM in PBS for 30 min at 37 C, 5% CO2. Cell viability was measured by values obtained using a 485 nm excitation with the Flouroskan Ascent Microplate Fluorometer (Thermo Scientific).
(§2) To test whether the cellular response to PT1 is a result of AMPK activation itself, or is merely a result of nonspecific interactions, an siRNA knockdown strategy was used. siRNA for PRKAA1 (s101) and a negative control (Life Technologies) were incubated with Hiperfect reagent (Qiagen) in media containing DMEM, 1% Penicillin-Streptomycin (10,000 U/mL) (Life Technologies), 1% glutaMAX (Life Technologies) but no serum and allowed to complex for 10 min at room temperature. […] At the end of the incubation period, the cells were analyzed for levels of AMPK and pAMPK by western blot analysis (see protocol above) or incubated for six additional days with PT1 (or DMSO as untreated control) and assessed for viability by Calcein AM. COX10-deficient fibroblasts were treated with PT1 and either siAMPK or siCNT, and responses were evaluated for pAMPK protein expression by western blotting (FIG. 4A), cell viability by Calcein AM fluorescence assay (FIG. 4B), and cell morphology by phase contrast microscopy (FIGS. 4C-4F)

pAMPK = pAMPK western blot after siRNA knockdown of PRKAA1 in COX10 deficient fibroblasts; type: cell-based, human; details: siAMPK+PT1 compared to siCNT+PT1
Description: Methods: Western blotting was performed to identify pAMPK levels in cells treated with PT1. Cells were lysed with RIPA buffer supplemented with Na-Orthovanadate, PMSF, and Protease Inhibitor cocktail. Whole cell extracts were fractionated by SDS-PAGE and transferred to a polyvinylidene difluoride membrane using a transfer apparatus according to the manufacturer's protocols (Bio-Rad). After incubation with 5% nonfat milk in TBST (10 mM Tris, pH 8.0, 150 mM NaCl, 0.5% Tween 20) for 60 min, the membrane was washed once with TBST and incubated with antibodies against AMPK (1:1,000), pAMPK (1:1,000), actin (1:10,000) at 4° C. overnight. […]
as §2, with “COX10-deficient fibroblasts were treated with PT1 and either siAMPK or siCNT, and responses were evaluated for pAMPK protein expression by western blotting (FIG. 4A), cell viability by Calcein AM fluorescence assay (FIG. 4B), and cell morphology by phase contrast microscopy (FIGS. 4C-4F)” left out

[4] = test system: NGLY1 deficient fibroblasts; experiment: Cell viability by Calcein AM in mitochondrial stressor media; type: cell-based, human; details: NGLY-1 deficient fibroblasts from three individuals; +PT1 vs −PT1; FIG. 2E
Description: (§3) Fibroblasts previously derived from four patients with primary mitochondrial disease (Surf1, Complex I, Cox10, Polg), three patients with NGLY1 deficiency and four normal controls were used for the study. All samples were obtained with informed consent and approved by the Stanford IRB. Fibroblasts were maintained in DMEM medium containing 8.3 mM glucose and supplemented with 10% fetal bovine serum (FBS)(Fisher Scientific), 1% Penicillin-Streptomycin (10,000 U/mL)(Life Technologies), 1% glutaMAX (Life Technologies), 1% uridine (5 mg/ml) and 1% pyruvate (11 mg/ml) at 37° C., 5% CO2.
(§4) For the screening of various compounds, 15×10^3 cells/500 ul media were seeded in quadruplets on 24 well microtiter plates. The following day, the medium was removed, wells washed with PBS and replaced with a mitochondrial stressor media containing DMEM, 1% Penicillin-Streptomycin (10,000 U/mL)(Life Technologies), 10% FCS (Fisher Scientific), 1 mM Galactose (Sigma Aldrich), and 25 μM sodium azide with or without the following compounds: 1 mM AICAR (Medchem Express), 1 mM Metformin (Sigma Aldrich), 100 μM PT1 (Santa Cruz Biotechnology), 100 μM A-769662 (Medchem Express), 100 μM C24 (Medchem Express). Following treatment with the various compounds, tissue cultures were analyzed for growth, oxygen consumption rate, and ATP levels.
as §1

CI-deficient fibroblasts [5] = experiment: as above; type: cell-based, human; details: FIG. 2C
Description: as §3, §4, §1

[6] = test system: SURF1-deficient fibroblasts; experiment: Cellular morphology by phase-contrast microscopy; type: cell-based, human; details: vs DMSO
Description: (§5) Fibroblasts in tissue culture were visualized by phase-contrast microscopy with a Leica DM IRB microscope at ×10 magnification, and images were taken with the Hamamatsu ORCA-ER camera.

[7] = test system: NGLY1 deficient fibroblasts; experiment: Cellular morphology by phase-contrast microscopy; type: cell-based, human; details: NGLY-1 deficient fibroblasts; vs untreated
Description: as §5

[8] = test system: COX10-deficient fibroblasts; experiment: Cellular morphology by phase-contrast microscopy; type: cell-based, human; details: vs untreated
Description: as §5

CI-deficient fibroblasts [9] = experiment: Cellular morphology by phase-contrast microscopy; type: cell-based, human; details: vs untreated
Description: as §5

[10] = test system: POLG-deficient fibroblasts; experiment: Cellular morphology by phase-contrast microscopy; type: cell-based, human; details: vs untreated
Description: as §5

ischemic stroke model = experiment: Ischemic stroke model, transient middle cerebral artery occlusion, TTC staining; type: in vivo, mice; details: PT1 100 mg/kg IP vs vehicle
Description: Methods: To generate an ischemic stroke model, ischemic lesions were induced by transiently occluding the middle cerebral artery for 45 minutes, followed by reperfusion. Mice were then injected intraperitoneally with either 100 mg/kg of PT1 or vehicle in two doses, 1 hour and 24 hours post-occlusion, and sacrificed one hour later for terminal tissue collection. Isolated brains were placed in cold saline for 20 minutes, sliced in seven coronal slices (2 mm thick), and stained in a 1.0% 2,3,5-triphenyltetrazolium chloride (TTC) solution in saline at 37° C. for 30 minutes. The stained brain tissues were fixed in 10% formalin in phosphate-buffered saline. The images were captured using a CCD camera (Panasonic Corporation, Japan) and the unstained damaged areas were defined as infarcted tissue and were quantified using Image Pro Plus 4.1 software (Media Cybernetics, Silver Spring, MD).

With `Cc1cc(-c2ccc(C=C3SC(=S)N(c4ccc(Cl)c(C(=O)O)c4)C3=O)o2)c([N+](=O)[O-])cc1C` [PT1] the “reduction of lipofuscin levels” value [1] was “approximately 36%”, the “increase in ATP production / content” value [2] was 40% and the cell viability [3] was “increased viability”. The “decrease in pAMPK levels” value (pAMPK) was 63%, the improvement in viability [4] was ≤ 60% and up to 60% and the survival / viability (CI-deficient fibroblasts [5]) was “improves survival; also recorded: significantly improved survival”. For the same compound, the cellular morphology [6] was “improved cellular morphology; also recorded: cell morphology improved”, the cellular morphology [7] was “cell morphology improved” and the cellular morphology [8] was “cell morphology improved”. The cellular morphology (CI-deficient fibroblasts [9]) was “cell morphology improved”, the cellular morphology [10] was “cell morphology improved” and the “percent of infarct tissue in brain” value (ischemic stroke model; FIG. 10A) was “marked improvement”. The “infarcted regions in TTC-stained brain slices” value (ischemic stroke model; FIGS. 10B-10C, 100 mg/kg) was “much lower amounts of ischemic tissue; also recorded: reduction in size of the infarcted regions”.

Source: patent US12377077B2, “Methods and formulations to treat mitochondrial dysfunction” (The Board of Trustees of the Leland Stanford Junior …, priority 2018, dated 2025)
